From patent US7964531B2, “3-phenoxy-4-pyridazinol derivatives and herbicidal composition containing the same” (Mitsui Chemicals Agro, Inc., priority 2001, dated 2011)

Assays:
Assay type in all cases: in vivo
Cyperus serotinus = assay: Test Example 1: herbicidal effects, paddy-field pot test; conditions: wettable powder applied 3 days after transplanting, judged after 25 days
Procedure, shortened: (§1)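 First, paddy soil was potted and seeded at the surface layer with non-dormant weed seeds; germinated Cyperus serotinus tubers were planted and 2.2-leaf rice transplanted. Three days later, diluted wettable powder was applied under flooding. Inhibition was rated 0–5 after 25 days.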

Scirpus joncoides = assay: as above; conditions: wettable powder applied 3 days after transplanting, judged after 25 days
Procedure, shortened: as §1

[1] = tested on: annual broad-leaved weeds (Lindernia spp., Rotala indica); assay: as above; conditions: wettable powder applied 3 days after transplanting, judged after 25 days
Procedure, shortened: as §1

[2] = tested on: barnyardgrass (Echinochloa oryzicola Vasing.); assay: as above; conditions: wettable powder applied 3 days after transplanting, judged after 25 days
Procedure, shortened: as §1

[3] = tested on: transplanted paddy-field rice; assay: Test Example 1: crop injury against transplanted paddy-field rice; conditions: wettable powder applied 3 days after transplanting, judged after 25 days
Procedure, shortened: as §1

barnyardgrass [4] = assay: Test Example 2: herbicidal effects (soil treatment); conditions: dosage 5 kg/a; soil treatment the day after seeding; judged after 21 days
Procedure, shortened: (§2)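 Pre-emergence test: seeds sown in upland soil in 150 cm^2 pots in a greenhouse, wettable powder diluted in water applied to soil surface the day after sowing at a predetermined dosage. Growth inhibition scored 21 days after treatment on a 0–5 scale (0: 0–10% to 5: 91–100%).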

[5] = tested on: indian mustard (Brassica juncea (L.) Czern. et Coss); assay: as above; conditions: dosage 5 kg/a; soil treatment the day after seeding; judged after 21 days
Procedure, shortened: as §2

indian mustard = assay: Test Example 3: herbicidal effects (foliar treatment); conditions: chemical dosage 0.5 kg/a; foliar treatment at 10 to 15 cm; judged after 14 days
Procedure: (§3) Judgment Standard • 0: Growth inhibition rate; 0 to 10% • 1: Growth inhibition rate; 11 to 30% • 2: Growth inhibition rate; 31 to 50% • 3: Growth inhibition rate; 51 to 70% • 4: Growth inhibition rate; 71 to 90% • 5: Growth inhibition rate; 91 to 100%.
(§4) Upland soil was filled in 150 cm^2 pot, and seeds of velvetleaf, tall morningglory, indian mustard, black nightshade redroot pigweed were sowed, and grown in a greenhouse. After the weeds were grown with 10 to 15 cm or so, a predetermined chemical dosage of the wettable powder prepared in accordance with Preparation example 1 was diluted with water containing 0.05% of GRAMIN-S and applied as a foliar treatment. After 14 days from the treatment, herbicidal effects were judged in accordance with the judgment standard of Test example 1, and the results were shown in Table 4. Incidentally, “-” in the table means no test was carried out.

redroot pigweed = assay: as above; conditions: chemical dosage 0.5 kg/a; foliar treatment at 10 to 15 cm; judged after 14 days
Procedure: as §3, §4

tall morningglory [6] = assay: as above; conditions: chemical dosage 0.5 kg/a; foliar treatment at 10 to 15 cm; judged after 14 days
Procedure: as §3, §4

Cyperus esculentus L. [7] = assay: Test Example 5: herbicidal effects, upland (soil treatment); conditions: after 21 days
Procedure: (§5) Upland soil was filled in 150 cm^2 pot, and seeds of barnyardgrass, Cyperus esculentus L., velvetleaf, black nightshade, tall morningglory and corn were sowed, and grown in a greenhouse. At the next day of seeding, a predetermined chemical dosage of the wettable powder prepared in accordance with Preparation example 5 was diluted with water and applied to soil surface. After 21 days from the treatment, herbicidal effects and crop injury against corn were judged according to the following judgment standard, and the results were shown in Tables 6 to 8.
(§6) Judgment Standard • 0: Growth inhibition rate; 0 to 9% • 1: Growth inhibition rate; 10 to 19% • 2: Growth inhibition rate; 20 to 29% • 3: Growth inhibition rate; 30 to 39% • 4: Growth inhibition rate; 40 to 49% • 5: Growth inhibition rate; 50 to 59% • 6: Growth inhibition rate; 60 to 69% • 7: Growth inhibition rate; 70 to 79% • 8: Growth inhibition rate; 80 to 89% • 9: Growth inhibition rate; 90 to 98% • 10: Growth inhibition rate; 99 to 100%.

barnyardgrass [8] = assay: as above; conditions: after 21 days
Procedure: as §5, §6

black nightshade [9] = assay: as above; conditions: after 21 days
Procedure: as §5, §6

tall morningglory [10] = assay: as above; conditions: after 21 days
Procedure: as §5, §6

velvetleaf [11] = assay: as above; conditions: after 21 days
Procedure: as §5, §6

corn [12] = assay: Test Example 5: crop injury against corn (soil treatment); conditions: after 21 days
Procedure: as §5, §6

Cyperus esculentus L. [13] = assay: Test Example 6: herbicidal effects, upland (foliar treatment); conditions: after 14 days
Description: as §6
(§7) Upland soil was filled in 150 cm^2 pot, and seeds of barnyardgrass, Cyperus esculentus L., velvetleaf, black nightshade, tall morningglory and corn were sowed, and grown in a greenhouse. After the weeds were grown with 10 to 15 cm or so, a predetermined chemical dosage of the wettable powder prepared in accordance with Preparation example 5 was diluted with water containing 0.05% of GRAMIN S and applied as a foliar treatment. After 14 days from the treatment, herbicidal effects and crop injury were judged in accordance with the judgment standard of Test example 5, and the results were shown in Tables 9 and 10. Incidentally, “-” in the table means no effective ingredient was contained.

barnyardgrass [14] = assay: as above; conditions: after 14 days
Description: as §6, §7

black nightshade [15] = assay: as above; conditions: after 14 days
Description: as §6, §7

tall morningglory [16] = assay: as above; conditions: after 14 days
Description: as §6, §7

velvetleaf [17] = assay: as above; conditions: after 14 days
Description: as §6, §7

corn [18] = assay: Test Example 6: crop injury against corn (foliar treatment); conditions: after 14 days
Description: as §6, §7

In the case of `Oc1cc(Cl)nnc1Oc1c(F)cccc1C1CC1` [Example 236], the “Herbicidal effects Cyperus serotinus” value (Cyperus serotinus; chemical dosage 10 g/a) is reported as 5 (Growth inhibition rate; 91 to 100%), the “Herbicidal effects Cyperus serotinus” value (Cyperus serotinus; chemical dosage 20 g/a) is reported as 5 (Growth inhibition rate; 91 to 100%) and the “Herbicidal effects Scirpus joncoides” value (Scirpus joncoides; chemical dosage 10 g/a) is reported as 5 (Growth inhibition rate; 91 to 100%). For the same compound, the “Herbicidal effects Scirpus joncoides” value (Scirpus joncoides; chemical dosage 20 g/a) was 5 (Growth inhibition rate; 91 to 100%), the “Herbicidal effects Broad leaf” value ([1]; chemical dosage 10 g/a) was 5 (Growth inhibition rate; 91 to 100%) and the “Herbicidal effects Broad leaf” value ([1]; chemical dosage 20 g/a) was 5 (Growth inhibition rate; 91 to 100%). For the same compound, the “Herbicidal effects Barnyard grass” value ([2]; chemical dosage 10 g/a) was 3 (Growth inhibition rate; 51 to 70%), the “Herbicidal effects Barnyard grass” value ([2]; chemical dosage 20 g/a) was 4 (Growth inhibition rate; 71 to 90%) and the “Crop injury against transplanted rice” value ([3]; chemical dosage 10 g/a) was 0 (Growth inhibition rate; 0 to 10%). The “Crop injury against transplanted rice” value ([3]; chemical dosage 20 g/a) was 0 (Growth inhibition rate; 0 to 10%), the “Herbicidal effects Barnyard-grass” value (barnyardgrass [4]) was 3 (Growth inhibition rate; 51 to 70%) and the “Herbicidal effects indian mustard” value [5] was 5 (Growth inhibition rate; 91 to 100%). The “Herbicidal effects indian mustard” value (indian mustard) was 3 (Growth inhibition rate; 51 to 70%), the “Herbicidal effects Redroot pigweed” value (redroot pigweed) was 3 (Growth inhibition rate; 51 to 70%) and the “Herbicidal effects Tall Morningglory” value (tall morningglory [6]) was 4 (Growth inhibition rate; 71 to 90%).

For `CS(=O)(=O)c1ccc(C(=O)C2C(=O)CCCC2=O)c([N+](=O)[O-])c1` [Compound F, 2-(4-mesyl-2-nitrobenzoyl)cyclohexan-1,3-dione], the “Herbicidal effects Cyperus esculentus” value (Cyperus esculentus L. [7]; F alone 25 g/ha) was 8 (Growth inhibition rate; 80 to 89%), the “Herbicidal effects Cyperus esculentus” value (Cyperus esculentus L. [7]; F alone 50 g/ha) was 9 (Growth inhibition rate; 90 to 98%) and the “Herbicidal effects Cyperus esculentus” value (Cyperus esculentus L. [7]; F alone 100 g/ha) was 9 (Growth inhibition rate; 90 to 98%). The “Herbicidal effects Barnyard grass” value (barnyardgrass [8]; F alone 25 g/ha) was 4 (Growth inhibition rate; 40 to 49%), the “Herbicidal effects Barnyard grass” value (barnyardgrass [8]; F alone 50 g/ha) was 8 (Growth inhibition rate; 80 to 89%) and the “Herbicidal effects Barnyard grass” value (barnyardgrass [8]; F alone 100 g/ha) was 9 (Growth inhibition rate; 90 to 98%). For the same compound, the “Herbicidal effects Black Nightshade” value (black nightshade [9]; F alone 25 g/ha) was 6 (Growth inhibition rate; 60 to 69%), the “Herbicidal effects Black Nightshade” value (black nightshade [9]; F alone 50 g/ha) was 3 (Growth inhibition rate; 30 to 39%) and the “Herbicidal effects Black Nightshade” value (black nightshade [9]; F alone 100 g/ha) was 8 (Growth inhibition rate; 80 to 89%). For the same compound, the “Herbicidal effects Tall Morningglory” value (tall morningglory [10]; F alone 25 g/ha) was 2 (Growth inhibition rate; 20 to 29%), the “Herbicidal effects Tall Morningglory” value (tall morningglory [10]; F alone 50 g/ha) was 5 (Growth inhibition rate; 50 to 59%) and the “Herbicidal effects Tall Morningglory” value (tall morningglory [10]; F alone 100 g/ha) was 8 (Growth inhibition rate; 80 to 89%). For the same compound, the “Herbicidal effects Velvetleaf” value (velvetleaf [11]; F alone 25 g/ha) was 9 (Growth inhibition rate; 90 to 98%), the “Herbicidal effects Velvetleaf” value (velvetleaf [11]; F alone 50 g/ha) was 10 (Growth inhibition rate; 99 to 100%) and the “Herbicidal effects Velvetleaf” value (velvetleaf [11]; F alone 100 g/ha) was 10 (Growth inhibition rate; 99 to 100%). The “Crop ijury against corn” value (corn [12]; F alone 25 g/ha) was 0 (Growth inhibition rate; 0 to 9%), the “Crop ijury against corn” value (corn [12]; F alone 50 g/ha) was 0 (Growth inhibition rate; 0 to 9%) and the “Crop ijury against corn” value (corn [12]; F alone 100 g/ha) was 0 (Growth inhibition rate; 0 to 9%). The “Herbicidal effects Cyperus esculentus” value (Cyperus esculentus L. [13]; F alone 25 g/ha) was 4 (Growth inhibition rate; 40 to 49%), the “Herbicidal effects Cyperus esculentus” value (Cyperus esculentus L. [13]; F alone 50 g/ha) was 5 (Growth inhibition rate; 50 to 59%) and the “Herbicidal effects Cyperus esculentus” value (Cyperus esculentus L. [13]; F alone 100 g/ha) was 6 (Growth inhibition rate; 60 to 69%). The “Herbicidal effects Barnyard grass” value (barnyardgrass [14]; F alone 25 g/ha) was 0 (Growth inhibition rate; 0 to 9%), the “Herbicidal effects Barnyard grass” value (barnyardgrass [14]; F alone 50 g/ha) was 0 (Growth inhibition rate; 0 to 9%) and the “Herbicidal effects Barnyard grass” value (barnyardgrass [14]; F alone 100 g/ha) was 2 (Growth inhibition rate; 20 to 29%). For the same compound, the “Herbicidal effects Black Nightshade” value (black nightshade [15]; F alone 25 g/ha) was 7 (Growth inhibition rate; 70 to 79%), the “Herbicidal effects Black Nightshade” value (black nightshade [15]; F alone 50 g/ha) was 10 (Growth inhibition rate; 99 to 100%) and the “Herbicidal effects Black Nightshade” value (black nightshade [15]; F alone 100 g/ha) was 9 (Growth inhibition rate; 90 to 98%). For the same compound, the “Herbicidal effects Tall Morningglory” value (tall morningglory [16]; F alone 25 g/ha) was 2 (Growth inhibition rate; 20 to 29%), the “Herbicidal effects Tall Morningglory” value (tall morningglory [16]; F alone 50 g/ha) was 5 (Growth inhibition rate; 50 to 59%) and the “Herbicidal effects Tall Morningglory” value (tall morningglory [16]; F alone 100 g/ha) was 9 (Growth inhibition rate; 90 to 98%). The “Herbicidal effects Velvetleaf” value (velvetleaf [17]; F alone 25 g/ha) was 9 (Growth inhibition rate; 90 to 98%), the “Herbicidal effects Velvetleaf” value (velvetleaf [17]; F alone 50 g/ha) was 10 (Growth inhibition rate; 99 to 100%) and the “Herbicidal effects Velvetleaf” value (velvetleaf [17]; F alone 100 g/ha) was 10 (Growth inhibition rate; 99 to 100%). The “Crop injury against corn” value (corn [18]; F alone 25 g/ha) was 0 (Growth inhibition rate; 0 to 9%), the “Crop injury against corn” value (corn [18]; F alone 50 g/ha) was 0 (Growth inhibition rate; 0 to 9%) and the “Crop injury against corn” value (corn [18]; F alone 100 g/ha) was 0 (Growth inhibition rate; 0 to 9%).
